Tested on: Epididymal fat cells from Wistar rats
Experiment: Glucose uptake in epididymal fat cells
Assay type: cell-based
Conditions: D-[3-3H]Glucose incorporation, rat epididymal fat cells, 2 hour incubation
Procedure: In addition, glucose uptake in an other source of adipocytes was used to evaluate the in vitro activity. […] The tissue (0.03 g/ml) is degraded by collagenase in modified HEPES solution pH 7.4 at 37° C. Test compound and/or vehicle is incubated with 500 μl aliquots in modified HEPES buffer pH 7.4 and D-[3-3H]Glucose (2.5 μCi/ml) is then added for 2 hour incubation. Test compound-induced the increase of glucose incorporation by more than 50 percent or more (≧50%) relative to the control 2 nM insulin response, indicates possible insulin receptor agonist activity. […] Compounds are screened at 10, 1, 0.1, 0.01 and 0.001 μM.

## (Phe B1)-MPA-(AEES)2-Insulin [Example VI]
  EC50: 0.0154 µM
